Results reported in US20240207192A1, “PHARMACEUTICAL COMPOSITIONS CONTAINING A PIPERIDINYL-METHYL-PURINE AMINE AND THEIR USE IN TREATING DISEASES AND CONDITIONS” (K36 THERAPEUTICS, INC., priority 2022, published 2024).
Where a name gives a salt, the structure may show the parent alone.

Assays:
Assay type in all cases: physicochemical
[1] = Storage stability of Formulations 1 to 4, related substances by HPLC; details: 40° C./75% relative humidity, capped glass vials
Method: An aliquot of each of Formulation 1, 2, 3, and 4 was subjected to stability testing. In particular, an amount of each formulation sufficient to provide 11.4 mg of Compound 1 was transferred to glass vials and then the vials were capped. The glass vials were stored at 40° C./75% relative humidity for three to six weeks. Samples were analyzed by HPLC to determine the amount of related substances in the formulation.

[2] = Storage stability of Formulations 5, 6 and 7, related substances by HPLC
Method: An aliquot of each of Formulation 5, 6, and 7 was subjected to stability testing. In particular, an amount of each formulation sufficient to provide 11.4 mg of Compound 1 was transferred to a glass vial bottle and then the bottle was capped. The glass vials were stored at (a) 40° C./NMT 25% relative humidity or (b) 40° C./75% relative humidity. Samples were analyzed by HPLC to determine the amount of related substances in the formulation.
(§1) Table 2 presents results for samples stored at 40° C./25% relative humidity. Table 3 presents results for samples stored at 40° C./75% relative humidity.

[3] = Storage stability of Formulations 8, 9 and 10, related substances
Method: An aliquot of each of Formulation 8, 9, and 10 was subjected to stability testing. In particular, an amount of each formulation sufficient to provide 14.3 mg of Compound 2 was transferred to a glass vial and then the vial was capped. The glass vials were stored at (a) 40° C./NMT 25% relative humidity or (b) 40° C./75% relative humidity. Samples were analyzed to determine the amount of related substances in the formulation.
as §1

[4] = 40° C./25% (NMT 25%) relative humidity

## COc1cc(F)c(-c2cc(Cn3cnc4c(N)ncnc43)c(N3CCC[C@](N)([C@H](O)C(F)F)C3)cn2)cc1F [Compound 1, (S)-1-((R)-3-amino-1-(4-((6-amino-9H-purin-9-yl)methyl)-6-(2,5-difluoro-4-methoxyphenyl)pyridin-3-yl)piperidin-3-yl)-2,2-difluoroethan-1-ol D-Tartrate]
[1]; 3 weeks
  Percentage of Related Substances in the Formulation (% as Determined by HPLC), 3 Weeks Storage: 0.42%
[1]; 6 weeks
  Percentage of Related Substances in the Formulation (% as determined by HPLC), 6 Weeks Storage: 0.41%
[2]; [4]
  Percentage of Related Substances in the Formulation (% as determined by HPLC), 2 Weeks Storage: 0.56%
[2]; 40° C./25% (NMT 25%) relative humidity, 4 weeks
  Percentage of Related Substances in the Formulation (% as determined by HPLC), 4 Weeks Storage: 0.57%
[2]; 40° C./75% relative humidity
  Percentage of Related Substances in the Formulation (% as determined by HPLC), 2 Weeks Storage: 0.57%
[2]; 40° C./75% relative humidity, 6 weeks
  Percentage of Related Substances in the Formulation (% as determined by HPLC), 6 Weeks Storage: 0.57%

## COc1cc(F)c(-c2cc(Cn3cnc4c(N)ncnc43)c(N3CCC[C@](N)([C@H](O)C(F)F)C3)cn2)cc1F [Compound 2, (S)-1-((R)-3-amino-1-(4-((6-amino-9H-purin-9-yl)methyl)-6-(2,5-difluoro-4-methoxyphenyl)pyridin-3-yl)piperidin-3-yl)-2,2-difluoroethan-1-ol Fumarate]
[3]; [4]
  Percentage of Related Substances in the Formulation (% as determined by HPLC), 2 Weeks Storage: 0.55%
  Percentage of Related Substances in the Formulation (% as determined by HPLC), 4 Weeks Storage: 0.55%
  Percentage of Related Substances in the Formulation (% as determined by HPLC), 6 Weeks Storage: 0.56%
[3]; 40° C./75% relative humidity
  Percentage of Related Substances in the Formulation (% as determined by HPLC), 2 Weeks Storage: 0.55%
  Percentage of Related Substances in the Formulation (% as determined by HPLC), 4 Weeks Storage: 0.56%
  Percentage of Related Substances in the Formulation (% as determined by HPLC), 6 Weeks Storage: 0.55%
